The numbers were not newly measured in patent US20110104272A1 (DEPOMED, INC., priority 2009, published 2011), which cites them from elsewhere.

For the compound `CC(=O)Nc1ccc(O)cc1` [Acetaminophen, N-(4-hydroxyphenyl)acetamine], the “solubility in water (in words)” value is “poorly soluble in water”.

Consider `CNC[C@H](O)c1cccc(O)c1` [Phenylephrine, (R)-3-[-1-hydroxy-2-(methylamino)ethyl]phenol], for which the “solubility in water (in words)” value is “highly soluble in water”.
